# What was measured:
# hNOD2 = target: T1, hNOD2 (Homo sapiens, UniProt Q9HC29); test: NOD2 functional agonist assay, 293hNOD2-SEAP reporter cells; type: cell-based; conditions: 293hNOD2 cells, OD above 3*O.D of negative control
# T1 construct: expressed in transfected cells; host or cells: HEK293
# From the text: (§1) HEK293 cells were stably transfected with plasmid for the overexpression of the NOD2 genes and a reporter plasmid expressing a secreted embryonic alkaline phosphatase (SEAP) gene under the control of a promoter inducible by the transcription factors NF-κB and AP-1. These cells are referred herein as 293hNOD2-SEAP. Upon NOD2 stimulation, these cells induce the activation of NF-κB and AP-1 and subsequently the secretion of SEAP. The reporter protein is easily detectable and measurable when using QUANTI-Blue™ (InvivoGen, San Diego, Calif.), a medium that turns purple/blue in the presence of SEAP.
# The biological activity of the compounds using 293hNOD2 cells. SEAP expression was measured using the commercially available SEAP detection kit (HEK-Blue™ Detection, InvivoGen). The SEAP activity in cells was quantified using the microplate reader (FLUOStar OPTIMA, BMG laboratories), the absorbance values were read using filter with excitation at 620 nm and emission at 655 nm. The results provided in Table 3 were expressed as the concentration were a significant mean optical density (OD) can be observed (above 3*O.D of negative control) as the mean optical density. As a positive control, the NOD2 pathway was stimulated with commercially available MDP (InvivoGen) and M-triDAP (InvivoGen). As a negative control endotoxin-free water was used. Additionally, 293 cells expressing the SEAP gene but not the NOD2 gene were used as a control.
# murine NOD1 = target: T2, murine NOD1 (Mus musculus, UniProt Q8BHB0); test: NOD1 functional agonist assay, 293mNOD1-SEAP reporter cells; type: cell-based; conditions: 293mNOD1 cells, OD above 3*O.D of negative control
# T2 construct: expressed in transfected cells; host or cells: HEK293
# T2 sequence (Q8BHB0 1-953): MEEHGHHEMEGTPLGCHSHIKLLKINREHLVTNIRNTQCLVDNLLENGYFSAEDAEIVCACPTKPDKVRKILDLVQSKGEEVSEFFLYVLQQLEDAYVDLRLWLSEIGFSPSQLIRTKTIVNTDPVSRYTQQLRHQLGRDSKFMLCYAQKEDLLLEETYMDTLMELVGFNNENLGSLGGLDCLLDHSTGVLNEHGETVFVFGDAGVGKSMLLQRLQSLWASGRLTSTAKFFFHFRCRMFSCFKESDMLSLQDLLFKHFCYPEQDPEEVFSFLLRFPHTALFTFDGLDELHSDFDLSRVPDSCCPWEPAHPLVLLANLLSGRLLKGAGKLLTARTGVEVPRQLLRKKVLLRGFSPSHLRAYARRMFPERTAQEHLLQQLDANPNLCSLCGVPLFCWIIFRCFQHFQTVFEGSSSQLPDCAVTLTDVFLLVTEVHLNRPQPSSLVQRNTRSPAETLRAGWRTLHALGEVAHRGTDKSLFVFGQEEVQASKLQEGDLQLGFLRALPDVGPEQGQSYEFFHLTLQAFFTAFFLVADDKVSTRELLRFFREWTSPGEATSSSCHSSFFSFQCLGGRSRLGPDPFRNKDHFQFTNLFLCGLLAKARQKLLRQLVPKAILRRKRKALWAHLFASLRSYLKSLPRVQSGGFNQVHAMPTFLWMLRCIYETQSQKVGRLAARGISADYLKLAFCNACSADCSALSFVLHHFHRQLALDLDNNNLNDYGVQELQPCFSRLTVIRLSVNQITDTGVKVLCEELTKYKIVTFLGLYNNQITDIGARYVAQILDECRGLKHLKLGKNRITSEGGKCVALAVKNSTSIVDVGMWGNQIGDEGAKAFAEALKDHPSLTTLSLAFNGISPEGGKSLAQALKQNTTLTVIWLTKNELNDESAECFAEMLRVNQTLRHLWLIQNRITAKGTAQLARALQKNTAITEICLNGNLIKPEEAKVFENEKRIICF
# From the text: as §1, with “NOD1” for “NOD2”, “293hNOD1-SEAP (for cells overexpressing the human NOD1 gene) and 293mNOD1-SEAP (for cells overexpressing the murine NOD1 gene).” for “293hNOD2-SEAP.”
# (§2) The biological activity of the compounds of the invention tested using 293hNOD1 and 293mNOD1 cells. SEAP expression was measured using the commercially available SEAP detection kit (HEK-Blue™ Detection, InvivoGen). The SEAP activity in cells was quantified using the microplate reader (FLUOStar OPTIMA, BMG laboratories), the absorbance values were read using filter with excitation at 620 nm and emission at 655 nm. The results provided in Table 2 were expressed as the concentration were a significant mean optical density (OD) can be observed (above 3*O.D of negative control). As a positive control, the NOD1 pathway was stimulated with commercially available iE-DAP (InvivoGen) and C12-iE-DAP (an acylated derivative of DAP; InvivoGen). As a negative control endotoxin-free water was used. Additionally, 293 cells expressing the SEAP gene but not the NOD1 gene were used as a control.
# human NOD1 = target: T3, human NOD1 (Homo sapiens, UniProt Q9Y239); test: NOD1 functional agonist assay, 293hNOD1-SEAP reporter cells; type: cell-based; conditions: 293hNOD1 cells, OD above 3*O.D of negative control
# T3 construct: expressed in transfected cells; host or cells: HEK293
# T3 sequence (Q9Y239 1-953): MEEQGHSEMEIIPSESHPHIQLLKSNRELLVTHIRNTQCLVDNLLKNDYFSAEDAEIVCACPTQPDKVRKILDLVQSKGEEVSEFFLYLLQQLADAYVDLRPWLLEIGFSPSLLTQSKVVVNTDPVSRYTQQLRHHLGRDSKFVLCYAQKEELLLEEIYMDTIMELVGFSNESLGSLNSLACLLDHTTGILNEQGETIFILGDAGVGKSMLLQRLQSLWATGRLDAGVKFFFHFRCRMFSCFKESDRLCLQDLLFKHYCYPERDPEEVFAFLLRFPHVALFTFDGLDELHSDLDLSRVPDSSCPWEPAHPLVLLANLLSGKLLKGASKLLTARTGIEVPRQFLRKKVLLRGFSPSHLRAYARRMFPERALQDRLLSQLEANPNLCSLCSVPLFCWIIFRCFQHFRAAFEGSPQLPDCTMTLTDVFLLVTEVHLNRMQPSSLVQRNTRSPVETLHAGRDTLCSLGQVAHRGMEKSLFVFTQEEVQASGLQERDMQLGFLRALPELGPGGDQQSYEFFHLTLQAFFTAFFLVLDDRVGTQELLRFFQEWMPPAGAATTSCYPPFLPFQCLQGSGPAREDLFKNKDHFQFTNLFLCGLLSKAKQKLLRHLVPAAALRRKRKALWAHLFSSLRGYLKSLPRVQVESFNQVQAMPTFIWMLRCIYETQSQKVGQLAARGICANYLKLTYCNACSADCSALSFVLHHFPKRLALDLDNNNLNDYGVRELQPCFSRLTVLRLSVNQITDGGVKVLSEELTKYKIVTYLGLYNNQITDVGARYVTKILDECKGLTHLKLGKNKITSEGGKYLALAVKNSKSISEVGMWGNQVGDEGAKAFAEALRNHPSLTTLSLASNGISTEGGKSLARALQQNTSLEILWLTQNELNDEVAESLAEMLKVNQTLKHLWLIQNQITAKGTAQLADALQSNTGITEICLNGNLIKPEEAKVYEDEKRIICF
# From the text: as §1, with “NOD1” for “NOD2”, “293hNOD1-SEAP (for cells overexpressing the human NOD1 gene) and 293mNOD1-SEAP (for cells overexpressing the murine NOD1 gene).” for “293hNOD2-SEAP.”
# as §2
# [1] = system: LPM in the peritoneal cavity; test: Numbers of LPM in the peritoneal cavity after i.p. injection; type: in vivo; conditions: injected i.p. into mice; FIG. 1B
# EAE in C57BL/6 mice = test: Experimental Autoimmune Encephalomyelitis (EAE) model; type: in vivo
# From the text: EAE is induced in C57BL/6 mice by immunization with an emulsion of MOG35-55 or MOG1-125 in complete Freund's adjuvant (CFA), followed by administration of pertussis toxin (PT) in PBS, first on the day of immunization and then again the following day.
# PEC = test: IL-10 production by PEC in vitro; type: cell-based; conditions: 24 h stimulation, FIG. 1A
# T1 sequence (Q9HC29 whole entry): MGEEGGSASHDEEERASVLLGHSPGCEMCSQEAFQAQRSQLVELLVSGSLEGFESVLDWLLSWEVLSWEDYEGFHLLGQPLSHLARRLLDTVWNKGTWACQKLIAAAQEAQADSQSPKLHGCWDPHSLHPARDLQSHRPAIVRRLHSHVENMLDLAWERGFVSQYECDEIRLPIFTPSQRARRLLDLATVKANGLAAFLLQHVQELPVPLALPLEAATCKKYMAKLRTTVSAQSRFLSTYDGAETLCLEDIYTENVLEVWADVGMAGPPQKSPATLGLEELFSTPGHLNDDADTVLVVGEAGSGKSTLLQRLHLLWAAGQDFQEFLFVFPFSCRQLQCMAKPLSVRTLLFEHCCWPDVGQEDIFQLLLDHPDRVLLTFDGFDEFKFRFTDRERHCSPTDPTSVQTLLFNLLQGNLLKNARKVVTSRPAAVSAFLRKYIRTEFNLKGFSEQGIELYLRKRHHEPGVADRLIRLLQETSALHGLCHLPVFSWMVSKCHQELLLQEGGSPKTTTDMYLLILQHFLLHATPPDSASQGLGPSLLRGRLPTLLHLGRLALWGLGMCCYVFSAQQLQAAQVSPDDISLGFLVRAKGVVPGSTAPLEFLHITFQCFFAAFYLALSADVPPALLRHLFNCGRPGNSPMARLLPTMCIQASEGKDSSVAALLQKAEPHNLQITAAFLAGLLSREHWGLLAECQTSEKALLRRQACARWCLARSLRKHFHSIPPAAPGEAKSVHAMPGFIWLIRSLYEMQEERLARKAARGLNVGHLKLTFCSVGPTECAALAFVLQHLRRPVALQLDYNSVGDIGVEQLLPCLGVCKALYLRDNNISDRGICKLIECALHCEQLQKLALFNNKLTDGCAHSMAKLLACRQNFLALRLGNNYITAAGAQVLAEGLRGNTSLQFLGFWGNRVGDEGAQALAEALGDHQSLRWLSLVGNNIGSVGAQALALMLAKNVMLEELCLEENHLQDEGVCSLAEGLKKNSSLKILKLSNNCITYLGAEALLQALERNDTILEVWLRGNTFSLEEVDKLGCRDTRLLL
Structure (SMILES),hNod2: concentration where a significant mean optical density (OD) can be observed (hNOD2) [µg/mL],mNod1: concentration where a significant mean optical density (OD) can be observed (murine NOD1) [µg/mL],hNod1: concentration where a significant mean optical density (OD) can be observed (human NOD1) [µg/mL],further results
"CC(=O)N[C@H]1[C@@H](OCc2ccccc2)O[C@H](CO)[C@@H](O)[C@@H]1O[C@H](C)C(=O)N[C@@H](C)C(=O)N[C@H](CCC(=O)N[C@H](CSC[C@H](N)C(=O)O)C(=O)N[C@H](C)C(=O)O)C(=O)O [Example 33, N2-(((R)-2-(((2S,3R,4R,5S,6R)-3-acetamido-2-(benzyloxy)-5-hydroxy-6-(hydroxymethyl)tetrahydro-2H-pyran-4-yl)oxy)propanoyl)-L-alanyl)-N^5-((S)-3-(((R)-2-amino-2-carboxyethyl)thio)-1-(((R)-1-carboxyethyl)amino)-1-oxopropan-2-yl)-D-glutamine]",1,1,1,–
"CC(=O)N[C@H]1[C@@H](OCc2ccccc2)O[C@H](CO)[C@@H](O)[C@@H]1O[C@H](C)C(=O)N[C@@H](C)C(=O)N[C@H](CCC(=O)N[C@H](CSC[C@H](N)C(=O)O)C(=O)O)C(=O)O [Example 31, N^2-(((R)-2-(((2S,3R,4R,5S,6R)-3-acetamido-2-(benzyloxy)-5-hydroxy-6-(hydroxymethyl)tetrahydro-2H-pyran-4-yl)oxy)propanoyl)-L-alanyl)-N^5-((S)-2-(((R)-2-amino-2-carboxyethyl)thio)-1-carboxyethyl)-D-glutamine]",0.1,1,1,–
"CCCCCCC(=O)N[C@H](CCC(=O)N[C@H](CSC[C@H](N)C(=O)O)C(=O)N[C@H](C)C(=O)O)C(=O)O [Example 15, N^5-((S)-3-(((R)-2-amino-2-carboxyethyl)thio)-1-(((R)-1-carboxyethyl)amino)-1-oxopropan-2-yl)-N^2-heptanoyl-D-glutamine]",–,0.01,0.01,"numbers of LPM in the peritoneal cavity [1]: significantly increased; EAE attenuation in WT mice (EAE in C57BL/6 mice; WT mice, FIG. 2): significantly attenuated; onset of EAE (EAE in C57BL/6 mice; treated IL-10−/− mice versus untreated WT or IL-10−/− mice, FIG. 2): slightly later onset; mice that developed EAE (EAE in C57BL/6 mice; treated IL-10−/− mice, FIG. 2): 100%; mice with any symptoms of EAE (EAE in C57BL/6 mice; treated WT mice, FIG. 2): one of 6; EAE-associated weight loss (EAE in C57BL/6 mice; treated mice, FIG. 1C): prevented associated weight loss; clinical course of EAE (EAE in C57BL/6 mice; treated mice, FIG. 1C): significantly attenuated; production of IL-10 by PEC (PEC): induced the production of significant concentrations of IL-10"
"CC(=O)N[C@H]1[C@@H](OCc2ccccc2)O[C@H](CO)[C@@H](O)[C@@H]1O[C@H](C)C(=O)N[C@@H](C)C(=O)N[C@H](CCC(=O)N[C@H](CSC[C@H](N)C(=O)O)C(=O)NCC(=O)O)C(=O)O [Example 32, N^2-(((R)-2-(((2S,3R,4R,5S,6R)-3-acetamido-2-(benzyloxy)-5-hydroxy-6-(hydroxymethyl)tetrahydro-2H-pyran-4-yl)oxy)propanoyl)-L-alanyl)-N^5-((S)-3-(((R)-2-amino-2-carboxyethyl)thio)-1-((carboxymethyl)amino)-1-oxopropan-2-yl)-D-glutamine]",0.1,0.1,0.1,–
"CCCCCCCCCCCCCC(=O)N[C@H](C(=O)N[C@H](CCC(=O)N[C@H](CSC[C@H](N)C(=O)O)C(=O)O)C(=O)O)C(C)C [Example 12, N^5-((S)-2-(((R)-2-amino-2-carboxyethyl)thio)-1-carboxyethyl)-N^2-(tetradecanoyl-L-valyl)-D-glutamine]",–,0.1,0.001,–
"CCCCCCCCCCCC(=O)N[C@@H](C)C(=O)N[C@H](CCC(=O)N[C@H](CSC[C@H](N)C(=O)O)C(=O)NCC(=O)O)C(=O)O [Example 28, N^5-((S)-3-(((R)-2-amino-2-carboxyethyl)thio)-1-((carboxymethyl)amino)-1-oxopropan-2-yl)-N^2-(dodecanoyl-L-alanyl)-D-glutamine]",–,0.001,0.001,–
